Assay results taken from patent US11453690B2, “Receptor inhibitor, pharmaceutical composition comprising same, and use thereof” (BEIJING TIDE PHARMACEUTICAL CO., LTD., priority 2018, dated 2022).

target: AT2 Receptor (AT2R) (Homo sapiens (Human), UniProt P50052); experiment: Measurement of inhibitory activity on AT2 receptor (Tag-lite HTRF, Tb-labeled AT2R cells, angiotensin receptor red agonist); type: binding; conditions: 1 h room temperature
Procedure: Measurement of Inhibitory Activity on AT1 Receptor ([…])/AT2 Receptor (AT2R)
Through the following steps, the inhibitory activity of the compound on AT1R/AT2R (IC50 value) was determined:
1) An appropriate amount of 1×TLB (Tag-lite Buffer) was prepared and well mixed for use.
2) The compound was diluted by 10 times with ddH2O or DMSO. The compound was then dilute to 4 times of the working concentration with 1×TLB and mixed well for use.
3) 8600 nM Tag-lite angiotensin receptor red agonist was diluted to 12 nM (4×Kd) with 1×TLB.
4) 5 ml 1×TLB was taken into a 15 ml centrifuge tube.
5) After thawing 1 tube of Tb-labeled AT1R/AT2R cells in a 37° C. water bath, the cells were quickly transferred to the 1×TLB in step 4), mixed gently, and centrifuged at 1200 g for 5 minutes at room temperature.
6) The supernatant was aspirated gently, and the cells were resuspended and mixed in 2.7 ml 1×TLB, and then placed at room temperature until use.
7) 10 μl cells were added to all test wells, and 5 μl 4× working solution of the compound from step 2) was added to the corresponding test wells. 5 μl 4× Tag-lite angiotensin receptor red agonist well diluted in step 3) was added to all test wells.
8) After leaving the reaction plate at room temperature for 1 h, data were measured and analyzed using Envision HTRF Reader, and the half inhibitory concentration (IC50) of the compound on AT1R/AT2R was calculated with the GraphPad Prism four-parameter equation.

Chain of AT2 Receptor (AT2R) (P50052 whole entry): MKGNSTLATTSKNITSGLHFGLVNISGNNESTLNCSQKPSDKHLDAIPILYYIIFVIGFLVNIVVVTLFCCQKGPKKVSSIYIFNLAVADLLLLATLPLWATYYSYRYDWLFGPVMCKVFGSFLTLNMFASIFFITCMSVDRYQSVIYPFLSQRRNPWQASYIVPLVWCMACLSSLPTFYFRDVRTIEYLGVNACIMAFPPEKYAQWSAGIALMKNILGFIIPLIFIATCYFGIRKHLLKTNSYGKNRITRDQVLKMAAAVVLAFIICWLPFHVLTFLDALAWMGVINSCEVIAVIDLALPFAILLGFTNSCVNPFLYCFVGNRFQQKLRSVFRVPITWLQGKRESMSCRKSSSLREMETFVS

Molecule | IC50 [nM]
O=C(O)[C@@H]1[C@H]2CC[C@@H](CN1C(=O)N(c1ccccc1)c1ccccc1)N2C(=O)N(Cc1ccsc1)C1CC1 [Compound C196, (1R,2S,5S)-8-(cyclopropyl (thiophene-3-yl-methyl)carbamoyl)-3-(diphenylcarbamoyl)-3,8-diazabicyclo [3.2.1]octane-2-carboxylic acid] | 1.63
CN(Cc1ccccc1)C(=O)N1[C@H]2CC[C@@H]1[C@@H](C(=O)O)N(C(=O)C(C)(c1ccccc1)c1ccccc1)C2 [Compound C173, (1R,2S,5S)-8-(benzyl(methyl)carbamoyl)-3-(2,2-diphenylpropionyl)-3,8-diazabicyclo [3.2.1]octane-2-carboxylic acid] | 5.57
CCN(Cc1ccsc1)C(=O)N1[C@H]2CC[C@@H]1[C@@H](C(=O)O)N(C(=O)N(c1ccccc1)c1ccccc1)C2 [Compound C207, (1R,2S,5S)-3-(diphenylcarbamoyl)-8-(ethyl (thiophene-3-ylmethyl)carbamoyl)-3,8-diazabicyclo [3.2.1]octane-2-carboxylic acid] | 10.4
O=C(O)[C@@H]1[C@H]2CC[C@@H](CN1C(=O)N1c3ccccc3Sc3ccccc31)N2C(=O)C(c1ccccc1)c1ccccc1 [Compound C28, (1R,2S,5S)-8-(2,2-diphenylacetyl)-3-(10H-phenothiazine-10-carbonyl)-3,8-diazabicyclo[3.2.1] octane-2-carboxylic acid] | 473
O=C(O)[C@H]1[C@@H]2CC[C@H](CN1C(=O)C(c1ccccc1)c1ccccc1)N2C(=O)C(c1ccccc1)c1ccccc1 [Compound C2, (1S,2R,5R)-3,8-bis (2,2-diphenylacetyl)-3,8-diazabicyclo [3.2.1]octane-2-carboxylic acid] | 9.11
CN(Cc1ccccc1F)C(=O)N1[C@H]2CC[C@@H]1[C@@H](C(=O)O)N(C(=O)N(c1ccccc1)c1ccccc1)C2 [Compound C114, (1R,2S,5S)-3-(diphenylcarbamoyl)-8-((2-fluorobenzyl) (methyl)carbamoyl)-3,8-diazabicyclo [3.2.1]octane-2-carboxylic acid] | 26.4
O=C(O)[C@@H]1[C@H]2CC[C@@H](CN1C(=O)N(c1ccccc1)c1ccccc1)N2C(=O)C#Cc1ccccc1 [Compound C256, (1R,2S,5S)-3-(diphenylcarbamoyl)-8-(3-phenylpropioloyl)-3,8-diazabicyclo [3.2.1]octane-2-carboxylic acid] | 40
O=C(O)[C@@H]1[C@H]2CC[C@@H](CN1C(=O)C(c1ccccc1)c1ccccc1)N2C(=O)C(c1ccccc1)c1ccccc1 [Compound C3, (1R,2S,5S)-3,8-bis (2,2-diphenylacetyl)-3,8-diazabicyclo [3.2.1]octane-2-carboxylic acid] | 13.9
O=C(O)[C@@H]1[C@H]2CC[C@@H](CN1C(=O)N(c1ccccc1)c1ccccc1)N2C(=O)N1CCC[C@@H]1c1cc(F)ccc1F [Compound C141, (1R,2S,5S)-8-((R)-2-(2,5-difluorophenyl)pyrrolidine-1-carbonyl)-3-(diphenylcarbamoyl)-3,8-diazabicyclo [3.2.1]octane-2-carboxylic acid] | 7.99
CC(c1ccccc1)N(C)C(=O)N1[C@H]2CC[C@@H]1[C@@H](C(=O)O)N(C(=O)N(c1ccccc1)c1ccccc1)C2 (stereo partly drawn) [Compound C225, (1R,2S,5S)-3-(diphenylcarbamoyl)-8-(methyl (1-phenylethyl)carbamoyl)-3,8-diazabicyclo [3.2.1]octane-2-carboxylic acid] | 11.7
(1R,2S,5S)-3- (2,2-diphenylacetyl)- 8-(((2-fluorobenzyl) oxy)carbonyl)- 3,8-diazabicyclo [3.2.1]octane-2- carboxylic acid [Compound C35] | 36.6
CCN(Cc1ccccc1Cl)C(=O)N1[C@H]2CC[C@@H]1[C@@H](C(=O)O)N(C(=O)N(c1ccccc1)c1ccccc1)C2 [Compound C212, (1R,2S,SS)-8-((2-chlorobenzyl) (ethyl)carbamoyl)-3-(diphenylcarbamoyl)-3,8-diazabicyclo [3.2.1]octane-2-carboxylic acid] | 9.04
O=C(O)[C@@H]1[C@H]2CC[C@@H](CN1C(=O)N(c1ccccc1)c1ccccc1)N2C(=O)c1ccccc1-c1ccccc1 [Compound C240, (1R,2S,5S)-8-([1,1′-biphenyl]-2-carbonyl)-3-(diphenylcarbamoyl)-3,8-diazabicyclo [3.2.1]octane-2-carboxylic acid] | 113
O=C(O)[C@@H]1[C@H]2CC[C@@H](CN1C(=O)N(c1ccccc1)c1ccccc1)N2C(=O)N(Cc1ccccc1)CC1CC1 [Compound C154, (1R,2S,5S)-8-(benzyl (cyclopropylmethyl)carbamoyl)-3-(diphenylcarbamoyl)-3,8-diazabicyclo [3.2.1]octane-2-carboxylic acid] | 19.8
O=C(O)[C@H]1[C@@H]2CC[C@H](CN1C(=O)C(c1ccccc1)c1ccccc1)N2C(=O)OCc1ccccc1 [Compound C76, (1S,2R,5R)-8-((benzyloxy)carbonyl)-3-(2,2-diphenylacetyl)-3,8-diazabicyclo [3.2.1]octane-2-carboxylic acid] | 69.7
CCN(Cc1csc(C)c1)C(=O)N1[C@H]2CC[C@@H]1[C@@H](C(=O)O)N(C(=O)N(c1ccccc1)c1ccccc1)C2 [Compound C208, (1R,2S,5S)-3-(diphenylcarbamoyl)-8-(ethyl((5-methylthiophen-3-yl)methyl)carbamoyl)-3,8-diazabicyclo [3.2.1]octane-2-carboxylic acid] | 11.8
O=C(O)[C@@H]1[C@H]2CC[C@@H](CN1C(=O)N(c1ccccc1)c1ccccc1)N2C(=O)N1CCC[C@@H]1c1ccccc1 [Compound C140, (1R,2S,5S)-3-(diphenylcarbamoyl)-8-((R)-2-phenylpyrrolidine-1-carbonyl)-3,8-diazabicyclo [3.2.1]octane-2-carboxylic acid] | 5.49
O=C(O)[C@@H]1[C@H]2CC[C@@H](CN1C(=O)N(c1ccccc1)c1ccccc1)N2C(=O)Oc1ccccc1 [Compound C115, (1R,2S,5S)-3-(diphenylcarbamoyl)-8-(phenoxycarbonyl)-3,8-diazabicyclo [3.2.1]octane-2-carboxylic acid] | 431
O=C(O)[C@@H]1[C@H]2CC[C@@H](CN1C(=O)N(c1ccccc1)c1ccccc1)N2C(=O)C1(c2ccccc2)CCCC1 [Compound C113, (1R,2S,5S)-3-(diphenylcarbamoyl)-8-(1-phenylcyclopentane-1-carbonyl)-3,8-diazabicyclo [3.2.1]octane-2-carboxylic acid] | 12.1
CC(CC(=O)N1[C@H]2CC[C@@H]1[C@@H](C(=O)O)N(C(=O)N(c1ccccc1)c1ccccc1)C2)c1ccccc1 (stereo partly drawn) [Compound C224, (1R,2S,5S)-3-(diphenylcarbamoyl)-8-(3-phenylbutylyl)-3,8-diazabicyclo [3.2.1]octane-2-carboxylic acid] | 23.8
O=C(O)[C@@H]1[C@H]2CC[C@@H](CN1C(=O)N(c1ccccc1)c1ccccc1)N2S(=O)(=O)c1ccccc1 [Compound C182, (1R,2S,5S)-3-(diphenylcarbamoyl)-8-(phenylsulfulyl)-3,8-diazabicyclo [3.2.l]octane-2-carboxylic acid] | 432
CN(Cc1ccc(C(F)(F)F)cc1)C(=O)N1[C@H]2CC[C@@H]1[C@@H](C(=O)O)N(C(=O)N(c1ccccc1)c1ccccc1)C2 [Compound C169] | 7.26
CN(C)S(=O)(=O)NC(=O)[C@@H]1[C@H]2CC[C@@H](CN1C(=O)C(c1ccccc1)c1ccccc1)N2C(=O)OCc1ccccc1 [Compound C233] | 102
